Columns and labels:
[1] = Toxicity study in NCr nude mice; settings: LBH589 2.5 or 7.5 mg/kg, rosiglitazone 10 or 20 mg/kg, i.p. five days per week, three-week cycle
Description: (§1) A total of 39 mice were randomly assigned to 5 treatment groups with at least 7 animals in each group. Mice were treated with vehicle (10% DMSO), 2.5 mg/kg or 7.5 mg/kg of LBH589, 10 mg/kg, or 20 mg/kg of Rosiglitazone via i.p. injection five days per week. The animals were evaluated for changes in clinical signs (stooling, activity level, and body weight). Bodyweight was measured prior to dosing and mice were monitored regularly for any signs of distress after drug administration. All mice were humanely euthanized after 24 days.

[2] = tested on: luciferase-labeled, triple-negative MDA-MB-231 cells; assay: Orthotopic mammary fat pad xenograft, bioluminescent tumor burden; format: in vivo, mouse; settings: day 28; LBH589 2.5 mg/kg, rosiglitazone 10 mg/kg or both, i.p. five days per week for four weeks; control 9.9 ± 6.2
Description: Female NCr nude mice (CrTac:NCr-Foxn1nu) aged 7 weeks were purchased from InVivos, Singapore. […] Mice were acclimatized to laboratory conditions for a minimum of 3 days prior to study initiation. All surgical procedures were performed under strict aseptic conditions according to the protocol approved by the SingHealth Institutional Animal Care and Use Committee (IACUC). […] A 1-cm incision was made at the abdominal mammary fat pad area. […] The incision was closed with wound clips (Stoelting Co, USA). To relieve post-surgical pain and prevent dehydration following surgery, 1 ml of 2 mg/ml meloxicam (Troy Ilium, Australia), diluted in 0.9% saline (B. Braun, Germany) was administered subcutaneously at the right flank of mice after surgery. Mice were recovered on a heating pad until fully awake from anesthesia before being returned to cages. Tumor growth was screened by imaging from the ventral view using the Xenogen IVIS system (Caliper Life Sciences, CA, USA). […] Bioluminescent signals around the tumor sites were identified and quantified as total photon counts using Living Image 4.2 software (Xenogen). […] The bodyweight of mice was measured prior to drug administration. Tumor growth was monitored twice a week using the Xenogen IVIS system throughout the entire 28 days of treatment. […]

[3] = tested on: untransformed human breast epithelial cell lines MCF10A and MCF12A; assay: PPARγ expression, activity and cell viability in normal breast epithelial cells; settings: 0, 50, 100 nM LBH589, 24 h
Description: Whole-cell lysates were prepared with RIPA lysis buffer containing 10 mM Tris-HCL pH7.4, 30 mM NaCl, 1 mM EDTA, 1% Nonidet P-40, supplemented with 1 mM sodium orthovanadate (Na3VO4), 1 µg/ml leupeptin, 1 µg/ml pepstatin A, 1 µg/ml aprotinin, and 1 mM PMSF before use. […] Thereafter, proteins were transferred onto nitrocellulose membranes, blocked for 1 h at room temperature with 5% non-fat milk, and incubated overnight at 4 °C with the primary antibody. After probing with a secondary antibody for 1 h at 25 °C, protein bands were detected by using the Supersignal West Pico Chemiluminescent substrate kit. β-actin antibody was used as a loading control.
The luciferase reporter construct used was pPPRE-tk-Luc, which contains three PPREs from the rat acyl-CoA oxidase promoter under the control of the Herpes simplex virus thymidine kinase promoter (kind gift from Dr. Ronald M. Evans, The Salk Institute for Biological Studies, San Diego, CA, USA). 3× PPRE promoter activities were assessed with a dual-luciferase assay kit. […] Ten microlitres of cell lysate were then added to 50 μl of the luciferase substrate solution, following which 50 μl of stop and glow buffer was added for Renilla reading. Bioluminescence generated was measured using a Sirius luminometer (Berthold, Munich, Germany). The luminescence readings obtained were normalized to the protein content of the corresponding cell lysate. […]

[4] = mouse, in vivo, ip, 7.5 mg/kg
Description: as §1

PPARγ [5] = assay: PPRE-luciferase reporter assay (PPARγ activity); format: cell-based, human; settings: MCF7, T47D, MDA-MB-231 and BT549 cells; 0, 50, 100 nM LBH589, 16 h
Text: We took advantage of the fact that downstream genes targeted by this transcription factor contain peroxisome proliferator response elements (PPRE), where it binds. […] To provide assurance that the enhanced bioluminescence is attributable to PPARγ receptor activation rather than some off-target consequence of pan-HDAC inhibition, we repeated the luciferase assays but modified the experiments to eliminate the contribution of PPARγ (Supplementary Results: Part S2).

ERα = ERα receptor expression (western blot); format: cell-based, human; settings: ER-positive cell lines MCF7 and T47D
PPARγ [6] = assay: Immunoprecipitation of FLAG-tagged PPARγ, acetyl-lysine immunoblot; format: cell-based, human; settings: MCF7 cells, 50 nM LBH589, first hour; overall FLAG-tagged PPARγ unchanged
Description: For detection of acetylation of PPARγ, immunoprecipitation with PPARγ was performed. Cells were seeded at […] density and transfected with FLAG-tagged PPARγ before treatment with LBH589. Cells were harvested and cell pellets were lysed in immunoprecipitation (IP) lysis buffer (pH 8). Two hundred and fifty micrograms of proteins were pre-cleared with magnetic G beads (Millipore, Bedford, MA) for 1 h before rotating with 1 μg of FLAG antibody or normal rabbit IgG overnight at 4 °C. Magnetic G beads were added to the mixture the next day and rotated for 1.5 h. Magnetic-enriched IP samples were washed four times in cold wash buffer (200 mM Tris [pH 8.0], 100 mM NaCl, 0.5% NP-40, 2 mM DTT, 0.5 mM PMSF, 1 mM sodium orthovanadate, 1 μg/ml leupeptin, and 1 μg/ml aprotinin) at 10 min intervals. Samples were then boiled in 5× SDS loading buffer and subjected to SDS-PAGE. Proteins were then transferred to PVDF membranes and detected for acetyl-lysine.

PPARγ [7] = assay: PPARγ mRNA and protein expression (RT-PCR, western blot); format: cell-based, human; settings: MCF7 and MDA-MB-231, 50 nM LBH589, from the 3 h mark to 18 h
Description: Total RNA was isolated from cells using TRIZOL reagent (Invitrogen, Carlsbad, CA, USA), as described in the manufacturer’s instructions with a DNAse treatment step incorporated into the protocol. Each RT reaction contained 2.5 µg of total RNA, 1× RT buffer, 5 mM MgCl2, 425 µM each of dNTPs, 2 µM random hexamers, 0.35U/µl RNase inhibitor, and 1.1U/µl MultiScribe™ reverse transcriptase and made up to 10 µl with sterile water. The RT reaction was carried out at 37 °C for 1 h. Five microlitres of the 10 µl cDNA reaction volume were used in real-time quantitative PCR using ABI PRISM 7500 (Applied Biosystems, Foster City, CA, USA). Normalization was endogenous 18S. Fluorescence was measured with the Sequence Detection Systems 2.0 software. PCR was performed in multiplex (both target and endogenous control co-amplified in the same reaction) with distinct fluorescent dyes. Primers and probes for human 18S, human PPARγ, BIRC5, CyclinD1, VEGFA, and MnSOD were purchased from Applied Biosystems (Assays on Demand).

Cellular IC50 of LBH589 = format: cell-based
MDA-MB-231 CAM tumor = assay: Chick chorioallantoic membrane (CAM) tumor vascularization, ultrasound imaging; format: in vivo; settings: single treatments, 48 h
Description: On Embryonic Day 3, a sharp weighted tool was used to poke a hole at the apex of the eggshell, and 3 mL of albumin was removed using a 5 ml syringe and 18G needle in order to drop the chick chorioallantoic membrane (CAM). The sharp-weighted tool was then used to poke a hole in the middle of the egg before using curved scissors to cut a 1cm2 hole. The eggs were screened, and dead embryos were removed.
On Embryonic Day 7, MDA-MB-231 cells were prepared for inoculation onto the CAM. DMEM was aspirated, cells were washed with PBS before the addition of 1 ml of 2.5 g/l Trypsin/EDTA solution onto the culture dish. The cells were then removed into a 15 ml Falcon tube and centrifuged for 3 min at 1200 rpm, before the supernatant was removed. Matrigel was added to the cell pellet on ice to resuspend the pellet, before the addition of 2 × 10^6 cells in a 50 µl of Matrigel-cell mixture onto CAM. […]
On Embryonic Day 10, the Tegaderm membrane was removed and Aquasonic gel was added onto the cling wrap which was carefully placed over the CAM. […] Tumor volumes and percentage vasculature were calculated by the Vevo Lab 1.7.0 programme.
Twenty microliters of single or combination treatments of LBH589 and rosiglitazone were added onto a 3.5 mm diameter autoclaved filter paper placed next to the formed tumor on the CAM. […] Percentage changes were calculated based on before and after drug treatment.

Row | clinical signs (weight gain, stooling) compared to lower dosage or placebo [4] | PPRE-luciferase reporter activity (PPARγ [5]) | IC50 (Cellular IC50 of LBH589) | SMILES | loss of original bodyweight [1] | relative tumor burden (fold change in bioluminescent signal normalized to pre-treatment radiance levels) [2] | PPARγ expression and activity [3] | ERα receptor expression (ERα) | acetylated PPARγ (PPARγ [6]) | intracellular PPARγ mRNA and protein (PPARγ [7]) | CAM tumor volume / tumor size compared to DMSO control (MDA-MB-231 CAM tumor) | changes in CAM vascular volumes compared to DMSO (MDA-MB-231 CAM tumor)
1 |  |  |  | CN(CCOc1ccc(CC2SC(=O)NC2=O)cc1)c1ccccn1 (stereo not drawn) [rosiglitazone] | ≤ 10% | 5.3 ± 0.8 fold |  |  |  |  |  | 
2 | less weight gain and softer stools | dose-dependently enhanced | 50 nM | Cc1[nH]c2ccccc2c1CCNCc1ccc(/C=C/C(=O)NO)cc1 [LBH589] |  | 5.8 ± 3.7 fold | did not upregulate PPARγ expression or augment its activity | dose-dependently suppressed | marked initial accumulation | steady and gradual rise | did not have any significant effects | No significant changes

Source: publication PMC8476547, “Epigenetic derepression converts PPARγ into a druggable target in triple-negative and endocrine-resistant breast cancers” (Cell Death Discovery, 2021)
